Columns and labels:
[1] = target: T1, Corticotropin-releasing factor receptor 1 (Homo sapiens, UniProt P34998); test: biochemical; type: cell-based, CHO
T1 sequence (P34998 whole entry): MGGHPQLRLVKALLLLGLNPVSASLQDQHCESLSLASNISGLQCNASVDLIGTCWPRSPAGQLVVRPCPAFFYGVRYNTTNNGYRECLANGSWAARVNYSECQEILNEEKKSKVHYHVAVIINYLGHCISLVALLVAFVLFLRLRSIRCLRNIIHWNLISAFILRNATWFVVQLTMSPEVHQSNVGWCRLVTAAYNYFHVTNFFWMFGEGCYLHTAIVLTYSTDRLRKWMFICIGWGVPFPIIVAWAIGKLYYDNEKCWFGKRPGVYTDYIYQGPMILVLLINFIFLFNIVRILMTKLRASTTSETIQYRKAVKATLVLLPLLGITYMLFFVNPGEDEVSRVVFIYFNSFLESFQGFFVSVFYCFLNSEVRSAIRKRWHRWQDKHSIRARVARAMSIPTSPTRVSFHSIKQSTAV

[2] = target: T1, Corticotropin-releasing factor receptor 1; test: Binding affinity towards human Corticotropin releasing factor receptor 1 by the displacement of [125I]CRF from CHO cells; IA means Inactive; type: cell-based
[3] = target: T2, Corticotropin-releasing factor receptor 2 (Homo sapiens, UniProt Q13324); test: Binding affinity towards human Corticotropin releasing factor receptor 2 by the displacement of [125I]CRF from CHO cells; IA means Inactive; type: cell-based
T2 sequence (Q13324 whole entry): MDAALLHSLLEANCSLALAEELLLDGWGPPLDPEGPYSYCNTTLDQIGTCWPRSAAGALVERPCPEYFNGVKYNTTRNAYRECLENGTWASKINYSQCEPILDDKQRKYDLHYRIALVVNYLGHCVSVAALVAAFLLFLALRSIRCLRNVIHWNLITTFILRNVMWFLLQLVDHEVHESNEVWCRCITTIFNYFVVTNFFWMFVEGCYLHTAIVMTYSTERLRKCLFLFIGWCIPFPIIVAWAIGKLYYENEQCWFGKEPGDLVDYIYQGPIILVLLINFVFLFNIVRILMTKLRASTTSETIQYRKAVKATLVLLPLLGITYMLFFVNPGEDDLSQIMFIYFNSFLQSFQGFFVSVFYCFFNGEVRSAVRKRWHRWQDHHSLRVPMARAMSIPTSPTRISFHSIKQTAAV

[4] = target: T1, Corticotropin-releasing factor receptor 1; test: Effective dose against CRF stimulated cAMP production in CHO cells expressing human Corticotropin releasing factor receptor 1; type: functional, cell-based
[5] = target: T1, Corticotropin-releasing factor receptor 1; test: Effective dose against human Corticotropin releasing factor receptor 1 stimulated ACTH release from primary rat anterior pituitary cell cultures; type: functional, cell-based, Pituitary gland cell

SMILES	Ki [1] [nM]	other results
CCCN(c1nccc(-c2c(OC)cc(OC)cc2OC)n1)[C@@H](c1ccccc1)C1CC1	240	–
CCCN(c1ncc(C)c(-c2ccc(Br)cc2C)n1)C(C1CC1)C1CC1	63	–
CCCN(c1nccc(-c2c(OC)cc(OC)cc2OC)n1)C1(c2cccs2)CC1	250	–
COc1cc(OC)c(-c2ccnc(N)n2)c(OC)c1	–	Ki [2]: Not Active
CCCN(c1ncc(C)c(-c2ccc(Br)cc2)n1)C(C1CC1)C1CC1	49	–
CCCN(c1nccc(-c2c(OC)cc(OC)cc2OC)n1)c1cccc2ccccc12	–	Ki [2]: Not Active
CCCN(c1ncc(C(=O)OC)c(-c2ccc(OC)cc2OC)n1)C(C1CC1)C1CC1	–	Ki [2]: Not Active
CCCN(c1nc(C)c(C)c(-c2ccc(Br)cc2)n1)C(C1CC1)C1CC1	–	Ki [2]: Not Active
COc1cc(OC)c(-c2ccnc(NC(C3CC3)C3CC3)n2)c(OC)c1	–	Ki [2]: Not Active
CCCN(c1nccc(-c2c(OC)cc(OC)cc2OC)n1)C1(c2ccoc2)CC1	700	–

Second part, led by results:

Ki [1] [nM]	SMILES	other results
460	CCCN(c1nccc(-c2ccc(OC)cc2OC)n1)C(C1CC1)C1CC1	–
860	CCCN(c1ncc(CC)c(-c2ccc(OC)cc2OC)n1)C(C1CC1)C1CC1	–
15	CCCN(c1nccc(-c2c(OC)cc(OC)cc2OC)n1)C(C1CC1)C1CC1	Ki [3]: Not Active; EC50 [4]: 990 nM; EC50 [5]: 970 nM
63	CCCN(c1nccc(-c2c(F)cc(OC)cc2OC)n1)C(C1CC1)C1CC1	–
11	CCCN(c1nccc(-c2c(Cl)cc(OC)cc2OC)n1)C(C1CC1)C1CC1	Ki [3]: Not Active; EC50 [4]: 1600 nM; EC50 [5]: 1100 nM
15	CCCN(c1ncc(C)c(-c2c(OC)cc(OC)cc2OC)n1)C(C1CC1)C1CC1	–
19	CCCN(c1ncc(C)c(-c2ccc(OC)cc2OC)n1)C(C1CC1)C1CC1	–
100	C=CCN(c1nccc(-c2c(OC)cc(OC)cc2OC)n1)C(C1CC1)C1CC1	–

Reference: ChEMBL document CHEMBL1147540, “Design, synthesis, and SAR of 2-dialkylamino-4-arylpyrimidines as potent and selective corticotropin-releasing factor(1) (CRF(1)) receptor antagonists” (Bioorg Med Chem Lett, 2004)
